# Experimental data as given in patent publication US7741363B2, “3-Acylindole derivatives, preparation and therapeutic use thereof” (Sanofi-Aventis, priority 2005, dated 2010).
smiles,measurement,value
Cc1c(C(=O)CC(C)(C)C)c2cccc(Cl)c2n1CCC[S+](C)[O-] (stereo not shown),melting point,123 °C
